Assay results: patent US20200353107A1, “IN VIVO IMAGING OF TUMOR INFILTRATION LEUKOCYTES” (STC.UNM, priority 2017, published 2020)

How the values were obtained:
LFA-1 receptor = target: T1, LFA-1 receptor (Mus musculus, UniProt P24063); assay: SPECT/CT imaging of mice after intravenous injection of the radioligand; assay type: in vivo
T1 construct: Leukocyte function-associated antigen-1 (LFA-1) receptors are normally expressed by all white blood cells; from tissue; host or cells: live mice (leukocytes in vivo)
Description: Mice are imaged with the Bioscan NanoSPECT/CT imaging system. Dynamic images are obtained immediately following injection of ˜750 uCi of ^111In-ROTA-alkylamino-NorBIRT intravenously. Static images are also obtained at 2, 4, and 24 hours post injection. Images are individually characterized.

[1] = Biodistribution study (gross dissection and tissue harvest); assay type: in vivo, mice; details: dissection at 18 and 24 hrs post-inoculation
Description: […] Results are evaluated as the percent injected dose per gram of tissue. The organs assessed are the heart, blood, stomach, liver, spleen, adrenals, kidneys, bone, muscle, bladder, testes, as well as the abcess or site of infection.

T1 sequence (P24063 24-1162): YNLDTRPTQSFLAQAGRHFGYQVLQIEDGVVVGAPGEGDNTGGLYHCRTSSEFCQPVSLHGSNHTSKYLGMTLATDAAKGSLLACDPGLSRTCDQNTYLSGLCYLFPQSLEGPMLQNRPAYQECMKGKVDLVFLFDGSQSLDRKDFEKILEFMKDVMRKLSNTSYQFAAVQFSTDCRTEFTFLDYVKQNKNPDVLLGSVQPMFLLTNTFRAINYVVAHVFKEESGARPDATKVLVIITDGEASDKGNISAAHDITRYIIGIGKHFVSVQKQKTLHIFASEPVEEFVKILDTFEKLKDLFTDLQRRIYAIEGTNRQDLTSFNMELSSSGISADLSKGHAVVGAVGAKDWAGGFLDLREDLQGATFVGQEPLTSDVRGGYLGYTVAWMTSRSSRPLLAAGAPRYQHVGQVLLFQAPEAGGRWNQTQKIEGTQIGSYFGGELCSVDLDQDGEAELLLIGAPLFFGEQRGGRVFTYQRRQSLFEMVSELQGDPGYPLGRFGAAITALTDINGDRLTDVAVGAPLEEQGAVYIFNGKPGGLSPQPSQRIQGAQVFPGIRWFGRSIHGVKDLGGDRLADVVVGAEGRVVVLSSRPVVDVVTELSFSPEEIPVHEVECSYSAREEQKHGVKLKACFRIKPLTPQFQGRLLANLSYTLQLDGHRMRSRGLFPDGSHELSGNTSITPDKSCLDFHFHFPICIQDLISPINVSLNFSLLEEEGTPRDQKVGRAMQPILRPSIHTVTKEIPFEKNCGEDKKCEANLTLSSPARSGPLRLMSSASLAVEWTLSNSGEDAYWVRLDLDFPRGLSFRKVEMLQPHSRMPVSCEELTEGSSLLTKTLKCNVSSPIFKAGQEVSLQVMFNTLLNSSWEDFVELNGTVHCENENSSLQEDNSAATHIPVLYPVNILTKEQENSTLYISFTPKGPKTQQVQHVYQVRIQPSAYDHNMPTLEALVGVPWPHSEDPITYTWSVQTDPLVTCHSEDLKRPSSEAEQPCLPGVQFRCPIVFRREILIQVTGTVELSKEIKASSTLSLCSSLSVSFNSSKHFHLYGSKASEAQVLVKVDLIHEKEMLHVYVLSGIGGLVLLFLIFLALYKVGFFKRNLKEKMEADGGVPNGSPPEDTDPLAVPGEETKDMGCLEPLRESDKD
T1 sequence (P11835 24-771 partner): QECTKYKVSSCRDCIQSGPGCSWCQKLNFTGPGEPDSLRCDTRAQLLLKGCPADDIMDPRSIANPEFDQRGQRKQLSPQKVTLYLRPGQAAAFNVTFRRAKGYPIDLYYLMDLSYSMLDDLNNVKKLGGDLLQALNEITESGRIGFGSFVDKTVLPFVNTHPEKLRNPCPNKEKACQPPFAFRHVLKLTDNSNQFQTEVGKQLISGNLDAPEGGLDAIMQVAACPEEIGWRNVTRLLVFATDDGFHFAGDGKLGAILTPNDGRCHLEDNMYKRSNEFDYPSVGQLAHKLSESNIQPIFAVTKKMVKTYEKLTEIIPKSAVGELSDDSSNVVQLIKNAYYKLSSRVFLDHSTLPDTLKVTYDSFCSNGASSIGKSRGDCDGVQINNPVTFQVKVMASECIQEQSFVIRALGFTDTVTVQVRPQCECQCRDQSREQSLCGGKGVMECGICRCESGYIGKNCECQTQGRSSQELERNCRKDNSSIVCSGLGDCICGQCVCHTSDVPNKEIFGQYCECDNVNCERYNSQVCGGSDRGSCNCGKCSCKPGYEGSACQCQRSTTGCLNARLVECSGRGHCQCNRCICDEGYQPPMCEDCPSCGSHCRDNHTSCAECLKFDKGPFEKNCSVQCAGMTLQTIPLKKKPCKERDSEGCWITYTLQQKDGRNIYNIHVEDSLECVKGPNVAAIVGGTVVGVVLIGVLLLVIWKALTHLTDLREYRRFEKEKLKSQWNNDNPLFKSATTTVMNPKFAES

uptake/retention at the tumor, early images (LFA-1 receptor; 5 minutes post-injection): high concentrations | focal retention in other tissues (LFA-1 receptor; SPECT/CT images): no focal retention in any other tissues | uptake in the tumor in SPECT/CT images (LFA-1 receptor; SPECT/CT images, mice, i.v.): focal uptake in the tumor | persistence of focal tumor uptake (LFA-1 receptor; all time points, including 24 hours post-injection): persists at all time points | urinary excretion in SPECT/CT images (LFA-1 receptor; as soon as 5 minutes post-injection and at all subsequent time points): prompt and significant urinary excretion | selectivity as imaging probe for LFA-1 receptor expression (LFA-1 receptor; in vivo SPECT/PET imaging of tumor sites): highly selective imaging probes
Substance: ^111In-DOTA-alkylamino-NorBIRT [^111In-alkylaminoNorBIRT]
radioactivity in the bladder (LFA-1 receptor; SPECT/CT images): prompt and significant radioactivity in the bladder | agreement of biodistribution data with image-based pharmacokinetic data [1]: correlate well with image-based pharmacokinetic data
